Measured values published in PubChem BioAssay AID2060505 (Molecular Pharmacology Branch, DTP, NCI, 2025).
Values belong to the compound of their own block, whether it stands above or below them.

Test system: 633275-114-R-J1-PDC complex spheroids, viability
Experiment: Anticancer human tumor 633275-114-R-J1-PDC patient-derived endometrial adenocarcinoma cell line growth inhibition [GQUAD]
Settings: for IC50: curve of first compound; for viability, T/C: stronger effect = lower value
From the text: DNA G-quadruplex Stabilizer Agents in Combinations in Complex Spheroids
A high-throughput screen of multi-cell type tumor spheroids was designed to identify active combinations of DNA G-quadruplex stabilizer agents and targeted small molecules. Complex spheroids include a stromal component modeled by human endothelial cells (HUVEC) and fibroblasts modeled by human mesenchymal stem cells (MSCs). The concentration ranges selected for each drug and investigational agent were based upon clinically achievable concentrations if the clinical Cmax of the agent was known.
Compounds. The drugs and investigational agents: pidnarulex (CX-5461; NSC782164), APTO-253 (NSC789042), BRACO-19 (NSC847499), peposertib (NSC802822), ceralasertib (NSC780249), elimusertib (NSC800525), camonsertib (NSC841442), AZD-1390 (NSC803789), olaparib (NSC753686), talazoparib (NSC767125), ART-558 (NSC835418), sotorasib (NSC818433), MRTX-1133 (NSC836407), SN-38 (NSC673596), topotecan (NSC609699), etoposide (NSC141540), doxorubicin (NSC123127), gemcitabine (NSC613327), 5-fluorouracil (NSC19893), paclitaxel (NSC125973), vemurafenib (NSC761431), panobinostat (NSC761190), R-306465 (JNJ-16241199; NSC773264), adavosertib (NSC754352), TP-3654 (NSC805149), carboplatin (NSC241240), KSQ-4279 (NSC840948), and staurosporine (NSC755774) were obtained from the National Cancer Institute (NCI) Developmental Therapeutics Program Chemical Repository (34). The FDA-approved anticancer drug set is available from the NCI Developmental Therapeutics Program. […] The stock solutions were prepared in dimethyl sulfoxide (DMSO, Sigma-Aldrich, St. Louis, MO, cat. D2650) at 800-fold the tested concentration and stored at -70 degrees C prior to their use. All drugs and investigational agents were tested over a range starting from a high concentration at or near the clinical Cmax and decreasing in half-log increments. If the clinical Cmax for an agent had not been determined, the highest concentration tested was 10 microM.
2.3 Cell Culture. All cells were maintained in an incubator at 37 degrees C and 5% CO2 with 95% humidity. The PDC lines were cultured according to standard operating procedures established by the NCI PDMR. All PDCs were thawed and cultured in Matrigel-coated flasks prepared with a working solution of 1X Ham's F-12 nutrient mix, without supplementation (Invitrogen, cat. 11765054), 100 U/mL penicillin-streptomycin (Invitrogen, cat. 15140122), and 2.5% Matrigel (Corning Inc., cat. 354248) for the first three passages. The 857933-349-R-J2-PDC line was cultured in 6C/Colon 1B media, which includes advanced DMEM/F-12 (Thermo Fisher Scientific, cat. 12634028), 10 mM HEPES (Thermo Fisher Scientific, cat. 15630080), 1X GlutaMAX supplement (Thermo Fisher Scientific, cat. 35050061), 0.1 mg/mL primocin (InvivoGen, cat. ant-pm-2), 10% defined fetal bovine serum, heat inactivated (HyClone Laboratories Inc., cat. SH30070.03HI), 50% L-WRN conditioned media (ATCC, cat. CRL-3276), 1.25 mM N-Acetyl-L-cysteine (Sigma-Aldrich, cat. A9165), 10 mM nicotinamide (Sigma-Aldrich, cat. N0636), 1X B-27 supplement (Thermo Fisher Scientific, cat. 17504044), 1X N-2 supplement (Thermo Fisher Scientific, cat. 17502048), 10 microM Y-27632 dihydrochloride (Tocris Bioscience, cat. 1254), and 50 ng/mL human EGF recombinant protein (Thermo Fisher Scientific, cat. PHG0311). The 485176-168-R4-J1-PDC line was cultured in Panc media, which includes all 6C/Colon 1B media components plus 100 ng/mL human FGF-10 (Thermo Fisher Scientific, cat. 100-26), 500 nM SB-431542 (Selleckchem, cat. S1067), and gastrin (Tocris, cat. 3006).
[…]

[1] = second compound 0.0316 µM, first compound 0.0316 µM
[2] = second compound 0.0316 µM, first compound 0.1 µM
[3] = second compound 0.0316 µM, first compound 0.316 µM
[4] = second compound 0.0316 µM, first compound 1 µM
[5] = second compound 0.0316 µM, first compound 3.16 µM
[6] = second compound 0.0316 µM, first compound 10 µM
[7] = second compound 0.1 µM, first compound 0.0316 µM
[8] = second compound 0.1 µM, first compound 0.1 µM
[9] = second compound 0.1 µM, first compound 0.316 µM
[10] = second compound 0.1 µM, first compound 1 µM
[11] = second compound 0.1 µM, first compound 3.16 µM
[12] = second compound 0.1 µM, first compound 10 µM
[13] = second compound 0.316 µM, first compound 0.0316 µM
[14] = second compound 0.316 µM, first compound 0.1 µM
[15] = second compound 0.316 µM, first compound 0.316 µM
[16] = second compound 0.316 µM, first compound 1 µM
[17] = second compound 0.316 µM, first compound 3.16 µM
[18] = second compound 0.316 µM, first compound 10 µM
[19] = second compound 1 µM, first compound 0.0316 µM
[20] = second compound 1 µM, first compound 0.1 µM
[21] = second compound 1 µM, first compound 0.316 µM
[22] = second compound 1 µM, first compound 1 µM
[23] = second compound 1 µM, first compound 3.16 µM
[24] = second compound 1 µM, first compound 10 µM
[25] = second compound 3.16 µM, first compound 0.0316 µM
[26] = second compound 3.16 µM, first compound 0.1 µM
[27] = second compound 3.16 µM, first compound 0.316 µM
[28] = second compound 3.16 µM, first compound 1 µM
[29] = second compound 3.16 µM, first compound 3.16 µM
[30] = second compound 3.16 µM, first compound 10 µM
[31] = second compound 10 µM, first compound 0.0316 µM
[32] = second compound 10 µM, first compound 0.1 µM
[33] = second compound 10 µM, first compound 0.316 µM
[34] = second compound 10 µM, first compound 1 µM
[35] = second compound 10 µM, first compound 3.16 µM
[36] = second compound 10 µM, first compound 10 µM
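Also: spheroids exposed to the agents for seven days.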
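For viability, T/C in this document: percent of DMSO vehicle control viability which is 100%.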

Structure (SMILES): CCCS(=O)(=O)Nc1ccc(F)c(C(=O)c2c[nH]c3ncc(-c4ccc(Cl)cc4)cc23)c1F + Cc1[nH]c2ccc(F)cc2c1-c1nc2c3cccnc3c3ncccc3c2[nH]1
IC50 (second compound 0.0316 µM): 9.54 µM
IC50 (second compound 0.1 µM): 9.21 µM
IC50 (second compound 0.316 µM): 8.58 µM
IC50 (second compound 1 µM): 8.24 µM
IC50 (second compound 3.16 µM): 7.09 µM
IC50 (second compound 10 µM): > 10 µM
viability, T/C [1]: 103%
viability, T/C [2]: 94.6%
viability, T/C [3]: 107%
viability, T/C [4]: 100%
viability, T/C [5]: 86.8%
viability, T/C [6]: 48.1%
viability, T/C [7]: 100%
viability, T/C [8]: 108%
viability, T/C [9]: 102%
viability, T/C [10]: 102%
viability, T/C [11]: 91.6%
viability, T/C [12]: 46.7%
viability, T/C [13]: 91.2%
viability, T/C [14]: 98.9%
viability, T/C [15]: 103%
viability, T/C [16]: 104%
viability, T/C [17]: 94.7%
viability, T/C [18]: 43.1%
viability, T/C [19]: 86.4%
viability, T/C [20]: 88.8%
viability, T/C [21]: 92.5%
viability, T/C [22]: 90.2%
viability, T/C [23]: 90.1%
viability, T/C [24]: 42%
viability, T/C [25]: 70.7%
viability, T/C [26]: 71.2%
viability, T/C [27]: 66.9%
viability, T/C [28]: 76.2%
viability, T/C [29]: 71.2%
viability, T/C [30]: 41%
viability, T/C [31]: 60.4%
viability, T/C [32]: 64.3%
viability, T/C [33]: 65.2%
viability, T/C [34]: 74.4%
viability, T/C [35]: 63.3%
viability, T/C [36]: 41.1%

Structure (SMILES): O=c1[nH]cc(F)c(=O)[nH]1 + Cc1[nH]c2ccc(F)cc2c1-c1nc2c3cccnc3c3ncccc3c2[nH]1
IC50 (second compound 0.0316 µM): > 10 µM
IC50 (second compound 0.1 µM): > 10 µM
IC50 (second compound 0.316 µM): > 10 µM
IC50 (second compound 1 µM): > 10 µM
IC50 (second compound 3.16 µM): > 10 µM
IC50 (second compound 10 µM): > 10 µM
viability, T/C [1]: 97.7%
viability, T/C [2]: 107%
viability, T/C [3]: 107%
viability, T/C [4]: 95.4%
viability, T/C [5]: 86%
viability, T/C [6]: 71.8%
viability, T/C [7]: 108%
viability, T/C [8]: 89.7%
viability, T/C [9]: 96.4%
viability, T/C [10]: 98.8%
viability, T/C [11]: 91.4%
viability, T/C [12]: 70.6%
viability, T/C [13]: 95.2%
viability, T/C [14]: 95.6%
viability, T/C [15]: 94%
viability, T/C [16]: 90.6%
viability, T/C [17]: 93.4%
viability, T/C [18]: 71.4%
viability, T/C [19]: 91.3%
viability, T/C [20]: 101%
viability, T/C [21]: 90.6%
viability, T/C [22]: 88.4%
viability, T/C [23]: 84.5%
viability, T/C [24]: 73.3%
viability, T/C [25]: 77.1%
viability, T/C [26]: 71.7%
viability, T/C [27]: 75.5%
viability, T/C [28]: 73.2%
viability, T/C [29]: 71.2%
viability, T/C [30]: 56.9%
viability, T/C [31]: 70.5%
viability, T/C [32]: 73%
viability, T/C [33]: 71.9%
viability, T/C [34]: 73%
viability, T/C [35]: 71.8%
viability, T/C [36]: 55.9%

IC50 (second compound 0.0316 µM): > 10 µM
IC50 (second compound 0.1 µM): < 0.0316 µM
IC50 (second compound 0.316 µM): < 0.0316 µM
IC50 (second compound 1 µM): < 0.0316 µM
IC50 (second compound 3.16 µM): < 0.0316 µM
IC50 (second compound 10 µM): < 0.0316 µM
Structure (SMILES): CC(C)n1c(=O)n(C)c2cnc3cc(F)c(-c4ccc(OCCCN5CCCCC5)nc4)cc3c21 + Cc1cnc(CNC(=O)c2c(=O)c3ccc(N4CCCN(C)CC4)nc3n3c2sc2ccccc23)cn1
viability, T/C [1]: 58%
viability, T/C [2]: 58.5%
viability, T/C [3]: 52.9%
viability, T/C [4]: 52.9%
viability, T/C [5]: 56.4%
viability, T/C [6]: 54%
viability, T/C [7]: 44.2%
viability, T/C [8]: 45.1%
viability, T/C [9]: 42.9%
viability, T/C [10]: 42.2%
viability, T/C [11]: 49.5%
viability, T/C [12]: 47.2%
viability, T/C [13]: 46.6%
viability, T/C [14]: 42.1%
viability, T/C [15]: 40.9%
viability, T/C [16]: 41.6%
viability, T/C [17]: 46.4%
viability, T/C [18]: 39.4%
viability, T/C [19]: 42.7%
viability, T/C [20]: 37.1%
viability, T/C [21]: 37.1%
viability, T/C [22]: 43.5%
viability, T/C [23]: 39.2%
viability, T/C [24]: 33.6%
viability, T/C [25]: 32.2%
viability, T/C [26]: 34.5%
viability, T/C [27]: 33.8%
viability, T/C [28]: 32.3%
viability, T/C [29]: 33.9%
viability, T/C [30]: 25.2%
viability, T/C [31]: 31.3%
viability, T/C [32]: 32%
viability, T/C [33]: 32.2%
viability, T/C [34]: 29.1%
viability, T/C [35]: 31.4%
viability, T/C [36]: 9.52%
